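Compound exposure: 48 hours, 5 concentrations, 96-well plates. The concentration for 50% growth inhibition is given as GI50.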 The source made the active and inactive calls. Cut-off read from the data, not from the text of the source: active = GI50 up to about 1.1 µM and inactive = higher.
Experiments:
Test in all cases: inhibition of tumour cell growth, NCI panel, 48 h
A498 = test system: A498
ACHN = test system: ACHN
COLO 205 = test system: COLO 205
HCT-116 = test system: HCT-116
HOP-62 = test system: HOP-62
KM12 = test system: KM12
M14 = test system: M14
MDA-MB-435 = test system: MDA-MB-435
NCI-H23 = test system: NCI-H23
NCI-H522 = test system: NCI-H522
SF-268 = test system: SF-268
SF-539 = test system: SF-539
SK-MEL-28 = test system: SK-MEL-28
SNB-75 = test system: SNB-75
SR = test system: SR
SW-620 = test system: SW-620
UACC-62 = test system: UACC-62
HL-60 = test system: HL-60
SK-MEL-2 = test system: SK-MEL-2

| Structure (SMILES) | GI50 (A498) | GI50 (ACHN) | GI50 (COLO 205) | GI50 (HCT-116) | GI50 (HOP-62) | GI50 (KM12) | GI50 (M14) | GI50 (MDA-MB-435) | GI50 (NCI-H23) | GI50 (NCI-H522) | GI50 (SF-268) | GI50 (SF-539) | GI50 (SK-MEL-28) | GI50 (SNB-75) | GI50 (SR) | GI50 (SW-620) | GI50 (UACC-62) | GI50 (HL-60) | GI50 (SK-MEL-2) |
| --- | --- | --- | --- | --- | --- | --- | --- | --- | --- | --- | --- | --- | --- | --- | --- | --- | --- | --- | --- |
| CCOC(=O)c1c(N2CCCC2)[nH]c(=O)c(C(c2ccc(Cl)c([N+](=O)[O-])c2)c2c(O)c(C(=O)OCC)c(N3CCCC3)[nH]c2=O)c1O | 33 µM (inactive) | 34.3 µM (inactive) | > 100 µM (inactive) | 34 µM (inactive) | 27.4 µM (inactive) | > 100 µM (inactive) | 20.8 µM (inactive) | 29.4 µM (inactive) | 22 µM (inactive) | 24.5 µM (inactive) | 23 µM (inactive) | 19.2 µM (inactive) | 35.3 µM (inactive) | 9.86 µM (inactive) | 40.3 µM (inactive) | 33.3 µM (inactive) | 26.8 µM (inactive) | – | – |
| CC1(C)Cc2c(sc3[nH]c(=S)[nH]c(=S)c23)CS1 | 33 µM (inactive) | – | 32.1 µM (inactive) | 47 µM (inactive) | 88.3 µM (inactive) | 45.8 µM (inactive) | 30.2 µM (inactive) | 29.9 µM (inactive) | 55.3 µM (inactive) | – | 32.7 µM (inactive) | 37.9 µM (inactive) | 22.4 µM (inactive) | – | 48.6 µM (inactive) | 53.1 µM (inactive) | 18.5 µM (inactive) | 33.2 µM (inactive) | 38.4 µM (inactive) |
| CC(=O)N1CCn2c1nc1cc(Cl)ccc12 | > 100 µM (inactive) | 34.4 µM (inactive) | > 100 µM (inactive) | 44 µM (inactive) | 19.4 µM (inactive) | > 100 µM (inactive) | > 100 µM (inactive) | > 100 µM (inactive) | – | 42.5 µM (inactive) | 32.2 µM (inactive) | 26.4 µM (inactive) | > 100 µM (inactive) | – | > 100 µM (inactive) | > 100 µM (inactive) | 33.5 µM (inactive) | > 100 µM (inactive) | 26.1 µM (inactive) |
| C#CCOCn1ccc(=O)[nH]c1=O | > 100 µM (inactive) | > 100 µM (inactive) | > 100 µM (inactive) | > 100 µM (inactive) | > 100 µM (inactive) | > 100 µM (inactive) | > 100 µM (inactive) | > 100 µM (inactive) | > 100 µM (inactive) | – | > 100 µM (inactive) | > 100 µM (inactive) | > 100 µM (inactive) | > 100 µM (inactive) | > 100 µM (inactive) | > 100 µM (inactive) | > 100 µM (inactive) | > 100 µM (inactive) | > 100 µM (inactive) |
| c1ccc2c(c1)cc1c3[nH]c4ccccc4c3ccn21 | – | > 10 µM (inactive) | 1.61 µM (inactive) | 6.92 µM (inactive) | > 10 µM (inactive) | > 10 µM (inactive) | > 10 µM (inactive) | > 10 µM (inactive) | > 10 µM (inactive) | > 10 µM (inactive) | > 10 µM (inactive) | > 10 µM (inactive) | > 10 µM (inactive) | > 10 µM (inactive) | > 10 µM (inactive) | 6.78 µM (inactive) | > 10 µM (inactive) | 0.687 µM (active) | > 10 µM (inactive) |
| CC[C@H]1C=CCC[C@@]2(C[C@@H]3CC[C@H]4[C@H](C(=O)OCCCCCCCCCCCCCCCC(=O)N(CCCN)C[C@@H](O)CCN)[C@]5(CCC[C@@H](C)O5)NC(=[N+]34)N2)O1 | 1.45 µM (inactive) | 0.513 µM (active) | 0.342 µM (active) | 0.344 µM (active) | 1.26 µM (inactive) | 0.509 µM (active) | 0.231 µM (active) | 0.338 µM (active) | 1.34 µM (inactive) | 1.04 µM (active) | 1.11 µM (active) | 1.49 µM (inactive) | 1.28 µM (inactive) | – | 0.323 µM (active) | 0.604 µM (active) | 0.202 µM (active) | 0.345 µM (active) | 0.53 µM (active) |
| COc1ccc(Nc2nn3c(=O)c4c(C)c(C)sc4nc3s2)cc1 | – | 41.4 µM (inactive) | > 100 µM (inactive) | 26.7 µM (inactive) | 29.1 µM (inactive) | 44.8 µM (inactive) | 61.1 µM (inactive) | 34.7 µM (inactive) | 18.7 µM (inactive) | 25.5 µM (inactive) | 5.98 µM (inactive) | 33 µM (inactive) | 61.1 µM (inactive) | 22.7 µM (inactive) | 9.84 µM (inactive) | 55.7 µM (inactive) | 71 µM (inactive) | 97.5 µM (inactive) | 35.6 µM (inactive) |
| CSc1nc(=S)[nH]c2c1c(C)nn2-c1ccccc1 | 30.5 µM (inactive) | 21.9 µM (inactive) | 20.1 µM (inactive) | 17.8 µM (inactive) | 41.7 µM (inactive) | – | 40.5 µM (inactive) | 40.5 µM (inactive) | 17.6 µM (inactive) | 19.1 µM (inactive) | 22.1 µM (inactive) | 28.1 µM (inactive) | 38.8 µM (inactive) | – | 11.2 µM (inactive) | 34.5 µM (inactive) | 14.5 µM (inactive) | 28.1 µM (inactive) | 22.8 µM (inactive) |
| O=C(C(Cl)=C(Nc1ccccc1)Nc1ccccc1)C(Cl)Cl | 24.8 µM (inactive) | 27.5 µM (inactive) | 30.6 µM (inactive) | 17.3 µM (inactive) | 15.5 µM (inactive) | 39.1 µM (inactive) | 16.8 µM (inactive) | 10.6 µM (inactive) | 41.4 µM (inactive) | 19.7 µM (inactive) | 31.7 µM (inactive) | 24.6 µM (inactive) | 33.2 µM (inactive) | – | 16.5 µM (inactive) | 18.8 µM (inactive) | 18.6 µM (inactive) | 17.4 µM (inactive) | – |
| Cc1cccc(NS(=O)(=O)c2ccc(/N=N/c3c(O)c(C(=O)O)cc4ccccc34)cc2)n1 | – | > 100 µM (inactive) | > 100 µM (inactive) | > 100 µM (inactive) | > 100 µM (inactive) | > 100 µM (inactive) | > 100 µM (inactive) | > 100 µM (inactive) | > 100 µM (inactive) | > 100 µM (inactive) | > 100 µM (inactive) | > 100 µM (inactive) | > 100 µM (inactive) | > 100 µM (inactive) | > 100 µM (inactive) | > 100 µM (inactive) | > 100 µM (inactive) | > 100 µM (inactive) | > 100 µM (inactive) |
| O=S(=O)(O)C(Cc1nc2ccccc2[nH]1)S(=O)(=O)OCCC1S(=O)(=O)OCCOS1(=O)=O (centres undefined) | > 100 µM (inactive) | > 100 µM (inactive) | > 100 µM (inactive) | > 100 µM (inactive) | > 100 µM (inactive) | > 100 µM (inactive) | > 100 µM (inactive) | > 100 µM (inactive) | > 100 µM (inactive) | > 100 µM (inactive) | > 100 µM (inactive) | > 100 µM (inactive) | > 100 µM (inactive) | > 100 µM (inactive) | – | > 100 µM (inactive) | > 100 µM (inactive) | > 100 µM (inactive) | > 100 µM (inactive) |
| COc1cccc(/C=C2\CCCc3ccccc3C2=O)c1 | – | 26.4 µM (inactive) | 17.8 µM (inactive) | 13.3 µM (inactive) | 16.1 µM (inactive) | 17.6 µM (inactive) | 13 µM (inactive) | 10.1 µM (inactive) | 15.1 µM (inactive) | 15 µM (inactive) | 10 µM (inactive) | 17.1 µM (inactive) | 18.1 µM (inactive) | 23.4 µM (inactive) | 13 µM (inactive) | 17.3 µM (inactive) | 12.9 µM (inactive) | 13.8 µM (inactive) | 13.8 µM (inactive) |
| C1=C(c2ccccc2)Nc2nnnn2C1c1ccccc1 (centres undefined) | 37.2 µM (inactive) | 23.6 µM (inactive) | 48.6 µM (inactive) | 9.93 µM (inactive) | 38.5 µM (inactive) | 13.5 µM (inactive) | 23.9 µM (inactive) | 11.1 µM (inactive) | > 100 µM (inactive) | 23.1 µM (inactive) | 32.7 µM (inactive) | 25.1 µM (inactive) | – | – | 12.1 µM (inactive) | 22.1 µM (inactive) | 46.2 µM (inactive) | 21.9 µM (inactive) | 27.5 µM (inactive) |
| CC(=O)c1cc2c(s1)C(=O)c1sccc1C2=O | 1.26 µM (inactive) | 0.0209 µM (active) | 1.31 µM (inactive) | 0.0698 µM (active) | 0.0434 µM (active) | 0.118 µM (active) | 0.0274 µM (active) | < 0.01 µM (active) | 0.0184 µM (active) | 0.0175 µM (active) | 0.0267 µM (active) | 0.0181 µM (active) | 0.014 µM (active) | 0.0204 µM (active) | 0.0133 µM (active) | 0.0569 µM (active) | 0.0333 µM (active) | – | 0.076 µM (active) |
| C[N+](C)(C)c1nc(N)nc2c1ncn2C1OC(CO)C(O)C1O (centres undefined) | > 100 µM (inactive) | > 100 µM (inactive) | > 100 µM (inactive) | > 100 µM (inactive) | > 100 µM (inactive) | > 100 µM (inactive) | > 100 µM (inactive) | > 100 µM (inactive) | > 100 µM (inactive) | > 100 µM (inactive) | > 100 µM (inactive) | > 100 µM (inactive) | > 100 µM (inactive) | > 100 µM (inactive) | > 100 µM (inactive) | > 100 µM (inactive) | > 100 µM (inactive) | – | > 100 µM (inactive) |
| CCCCCC#CCOC(=O)C(=[N+]=[N-])P(=O)(c1ccccc1)c1ccccc1 | > 10 µM (inactive) | > 10 µM (inactive) | – | 8.26 µM (inactive) | > 10 µM (inactive) | > 10 µM (inactive) | > 10 µM (inactive) | > 10 µM (inactive) | > 10 µM (inactive) | – | > 10 µM (inactive) | > 10 µM (inactive) | > 10 µM (inactive) | > 10 µM (inactive) | > 10 µM (inactive) | > 10 µM (inactive) | > 10 µM (inactive) | > 10 µM (inactive) | – |
